Experiments:
KRas G12C = biological target: T1, KRas G12C (Homo sapiens, UniProt P01116, G12C); assay: KRas binding assay, TR-FRET displacement of Cy5 labelled tracer; settings: 60-minute incubation at room temperature, 1% DMSO, pH 7.5
T1 construct: Biotinylated KRas (corresponding to amino acids 1-169, produced at Accelegan Inc.); biotin (biotinylated); purchased Accelegan Inc
Procedure, shortened: (§1)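 Compound competes with tracer for biotin-labelled KRas (amino acids 1-169) bound to terbium-streptavidin. Incubation runs 60 minutes at room temperature, final DMSO 1%. IC50 values derive from a 4-parameter fit.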

KRas G12S = biological target: T2, KRas G12S (Homo sapiens, UniProt P01116, G12S); assay: as above; settings: 60-minute incubation at room temperature, 1% DMSO, pH 7.5
T2 construct: Biotinylated KRas (corresponding to amino acids 1-169, produced at Accelegan Inc.); biotin (biotinylated); purchased Accelegan Inc
T2 sequence (P01116 1-169 isoform P01116-2 G12S): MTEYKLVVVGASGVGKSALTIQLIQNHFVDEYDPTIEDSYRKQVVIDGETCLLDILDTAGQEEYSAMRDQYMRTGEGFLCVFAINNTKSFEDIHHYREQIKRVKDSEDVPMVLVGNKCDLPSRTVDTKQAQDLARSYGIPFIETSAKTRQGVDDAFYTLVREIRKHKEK
Procedure, shortened: as §1

KRas WT = biological target: T3, KRas WT (Homo sapiens, UniProt P01116); assay: as above; settings: 60-minute incubation at room temperature, 1% DMSO, pH 7.5
T3 construct: Biotinylated KRas (corresponding to amino acids 1-169, produced at Accelegan Inc.); biotin (biotinylated); purchased Accelegan Inc
T3 sequence (P01116 1-169 isoform P01116-2): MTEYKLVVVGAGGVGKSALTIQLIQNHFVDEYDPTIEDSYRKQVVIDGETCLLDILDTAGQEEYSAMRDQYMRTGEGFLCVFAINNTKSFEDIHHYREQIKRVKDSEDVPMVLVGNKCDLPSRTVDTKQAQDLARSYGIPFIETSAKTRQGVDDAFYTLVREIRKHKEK
Procedure, shortened: as §1

[1] = biological target: T4, KRas-mediated phosphorylation of ERK in MKN1 cells (Homo sapiens, UniProt P01116); assay: Inhibition of KRas-mediated phosphorylation of ERK (HTRF), MKN1 cells; format: cell-based; settings: MKN1 cells (KRas WT); HTRF pERK; 3 h incubation
T4 construct: pERK HTRF read-out
T4 sequence (P01116 1-188 isoform P01116-2): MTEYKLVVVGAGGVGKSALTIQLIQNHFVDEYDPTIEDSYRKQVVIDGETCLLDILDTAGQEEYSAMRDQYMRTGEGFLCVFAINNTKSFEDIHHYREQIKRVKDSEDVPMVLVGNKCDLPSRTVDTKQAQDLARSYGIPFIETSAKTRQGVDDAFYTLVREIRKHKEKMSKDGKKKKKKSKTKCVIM
Method: Inhibition of KRas Phosphorylation of ERK (HTRF) by Exemplary Compounds of Formula (Ia) or (Ib)
Cisbio HTRF Advanced pERK Assay Catalog #64AERPEH • Cells: MKN1, PSN1 • Procedure: • 1. Day 1: Seed 6,000 cells/well −25 μl/well in 384-well white solid bottom plate; RPM1_10% FBS. Incubate overnight at 37 °C/5% CO2. • 2.

[2] = biological target: T5, KRas-mediated phosphorylation of ERK in A549 cells (Homo sapiens, UniProt P01116, G12S); assay: Inhibition of KRas-mediated phosphorylation of ERK (HTRF), A549 cells; format: cell-based; settings: HTRF pERK, 3 h incubation
T5 construct: pERK HTRF read-out
T5 sequence (P01116 1-188 isoform P01116-2 G12S): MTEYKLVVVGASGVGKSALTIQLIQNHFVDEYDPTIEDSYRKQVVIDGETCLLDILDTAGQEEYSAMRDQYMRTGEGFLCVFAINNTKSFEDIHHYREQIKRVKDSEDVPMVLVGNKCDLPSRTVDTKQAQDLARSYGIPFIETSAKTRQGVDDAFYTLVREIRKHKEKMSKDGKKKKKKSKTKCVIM

[3] = biological target: T6, KRas-mediated phosphorylation of ERK in H358 cells (Homo sapiens, UniProt P01116, G12C); assay: Inhibition of KRas-mediated phosphorylation of ERK (HTRF), H358 cells; format: cell-based; settings: HTRF pERK, 3 h incubation
T6 construct: pERK HTRF read-out
T6 sequence (P01116 1-188 isoform P01116-2 G12C): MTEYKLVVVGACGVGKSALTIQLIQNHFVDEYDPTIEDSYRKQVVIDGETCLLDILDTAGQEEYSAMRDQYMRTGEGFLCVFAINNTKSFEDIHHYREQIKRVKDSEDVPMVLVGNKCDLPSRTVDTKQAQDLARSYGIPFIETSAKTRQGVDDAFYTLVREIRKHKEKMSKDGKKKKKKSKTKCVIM

T1 sequence (P01116 1-169 isoform P01116-2 G12C): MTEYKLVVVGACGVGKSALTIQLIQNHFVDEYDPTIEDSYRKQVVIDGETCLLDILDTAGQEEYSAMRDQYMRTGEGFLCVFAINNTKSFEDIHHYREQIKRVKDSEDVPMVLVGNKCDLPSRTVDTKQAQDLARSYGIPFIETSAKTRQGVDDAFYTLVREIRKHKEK

| SMILES | IC50 (KRas G12C) [nM] | IC50 (KRas G12S) [nM] | IC50 (KRas WT) [nM] | IC50 [1] [nM] | IC50 [2] [nM] | IC50 [3] [nM] |
| --- | --- | --- | --- | --- | --- | --- |
| CC(=O)N(C)C(=O)[C@H]1C[C@@H]2CN(c3nc(OC[C@@]45CCCN4C[C@H](F)C5)nc4c(F)c(-c5ccc(F)c6sc(N)c(C#N)c56)c(Cl)cc34)C[C@@H]2C1 (atropisomer, axis not shown; (aR)) [Example 236, (3aR,5S,6aS)-N-acetyl-2-((S)-7-(2-amino-3-cyano-7-fluorobenzo[b]thiophen-4-yl)-6-chloro-8-fluoro-2-(((2R,7aS)-2-fluorotetrahydro-1H-pyrrolizin-7a(5H)-yl)methoxy)quinazolin-4-yl)-N-methyloctahydrocyclopenta[c]pyrrole-5-carboxamide] | 7 | 15 | 10 | 41 | 104 | 108 |
| Cc1ccn(C(=O)[C@H]2CCCN(c3nc(OC[C@@]45CCCN4C[C@H](F)C5)nc4c(F)c(-c5ccc(F)c6sc(N)c(C#N)c56)c(Cl)cc34)CC2)n1 (atropisomer, axis not shown; (aS)) [Example 170, 2-amino-4-((S)-6-chloro-8-fluoro-2-(((2R,7aS)-2-fluorotetrahydro-1H-pyrrolizin-7a(5H)-yl)methoxy)-4-((S)-4-(3-methyl-1H-pyrazole-1-carbonyl)azepan-1-yl)quinazolin-7-yl)-7-fluorobenzo[b]thiophene-3-carbonitrile] | 2 | 2 | 9 | 53 | 2 | 3 |
| Cc1ccn(C(=O)[C@@H]2CCCN(c3nc(OC[C@@]45CCCN4C[C@H](F)C5)nc4c(F)c(-c5ccc(F)c6sc(N)c(C#N)c56)c(Cl)cc34)CC2)n1 (atropisomer, axis not shown; (aS)) [Example 172, 2-amino-4-((S)-6-chloro-8-fluoro-2-(((2R,7aS)-2-fluorotetrahydro-1H-pyrrolizin-7a(5H)-yl)methoxy)-4-((R)-4-(3-methyl-1H-pyrazole-1-carbonyl)azepan-1-yl)quinazolin-7-yl)-7-fluorobenzo[b]thiophene-3-carbonitrile] | – | – | – | 199 | 35 | 50 |
| CC(=O)N(C)C(=O)[C@H]1CCCN(c2nc(OC[C@@]34CCCN3C[C@H](F)C4)nc3c(F)c(-c4ccc(F)c5sc(N)c(C#N)c45)c(Cl)cc23)CC1 (atropisomer, axis not shown; (aS)) [Example 256, (S)—N-acetyl-1-((S)-7-(2-amino-3-cyano-7-fluorobenzo[b]thiophen-4-yl)-6-chloro-8-fluoro-2-(((2R,7aS)-2-fluorotetrahydro-1H-pyrrolizin-7a(5H)-yl)methoxy)quinazolin-4-yl)-N-methylazepane-4-carboxamide] | 5 | 2 | 4 | 19 | 3 | 8 |
| CC(=O)N(C)C(=O)CCCN(C)c1nc(OC[C@@]23CCCN2C[C@H](F)C3)nc2c(F)c(-c3ccc(F)c4sc(N)c(C#N)c34)c(Cl)cc12 (atropisomer, axis not shown; (aS)) [Example 260, N-acetyl-4-(((S)-7-(2-amino-3-cyano-7-fluorobenzo[b]thiophen-4-yl)-6-chloro-8-fluoro-2-(((2R,7aS)-2-fluorotetrahydro-1H-pyrrolizin-7a(5H)-yl)methoxy)quinazolin-4-yl)(methyl)amino)-N-methylbutanamide] | < 2 | < 2 | 4 | 36 | 6 | 18 |
| CN(CCN(C)c1nc(OC[C@@]23CCCN2C[C@H](F)C3)nc2c(F)c(-c3ccc(F)c4sc(N)c(C#N)c34)c(Cl)cc12)C(=O)n1nccn1 (single isomer, unassigned) [Example 202] | < 2 | 2 | 4 | 142 | 1480 | 23 |
| CN(CCN(C)c1nc(OC[C@@]23CCCN2C[C@H](F)C3)nc2c(F)c(-c3ccc(F)c4sc(N)c(C#N)c34)c(Cl)cc12)C(=O)n1ccnn1 (single isomer, unassigned) [Example 203] | < 2 | 3 | 4 | 101 | 195 | 1 |
| CCc1c(F)ccc2cc(O)cc(N3CCc4c(nc(OC[C@@]56CCCN5C[C@H](F)C6)nc4N4CCCC(C(=O)n5ccc(C)n5)C4)C3)c12 (stereo partly drawn) [Example 144, (1-(7-(8-ethyl-7-fluoro-3-hydroxynaphthalen-1-yl)-2-(((2R,7aS)-2-fluorotetrahydro-1H-pyrrolizin-7a(5H)-yl)methoxy)-5,6,7,8-tetrahydropyrido[3,4-d]pyrimidin-4-yl)piperidin-3-yl)(3-methyl-1H-pyrazol-1-yl)methanone] | 50 | 32 | 68 | – | 5900 | 178 |

Now from value to compound:

| IC50 (KRas G12C) [nM] | IC50 (KRas G12S) [nM] | IC50 (KRas WT) [nM] | IC50 [1] [nM] | IC50 [2] [nM] | IC50 [3] [nM] | SMILES |
| --- | --- | --- | --- | --- | --- | --- |
| 128 | 146 | 25 | 90 | 3820 | 1250 | CCc1c(F)ccc2cc(O)cc(-c3ncc4c(N5CCN(C(=O)n6ccc(C)n6)C6(CC6)C5)nc(OC[C@@]56CCCN5C[C@H](F)C6)nc4c3F)c12 (single isomer, unassigned) [Example 78] |
| 73 | 84 | 39 | 251 | 2180 | 83 | CCc1c(F)ccc2cc(O)cc(-c3ncc4c(N5CCN(C(=O)n6nccn6)CC5)nc(OC[C@@]56CCCN5C[C@H](F)C6)nc4c3F)c12 (single isomer, unassigned) [Example 152] |
| 56 | 8 | 166 | – | 38 | 931 | CCc1c(F)ccc2cc(O)cc(N3CCc4c(nc(OC[C@@]56CCCN5C[C@H](F)C6)nc4N4CCCC(C(=O)n5cccn5)CC4)C3)c12 (stereo partly drawn) [Example 143, (1-(7-(8-ethyl-7-fluoro-3-hydroxynaphthalen-1-yl)-2-(((2R,7aS)-2-fluorotetrahydro-1H-pyrrolizin-7a(5H)-yl)methoxy)-5,6,7,8-tetrahydropyrido[3,4-d]pyrimidin-4-yl)azepan-4-yl)(1H-pyrazol-1-yl)methanone] |
| 439 | 642 | 138 | – | 4130 | 1760 | CCc1c(F)ccc2cc(O)cc(-c3ncc4c(N5CCC(C(=O)Nc6ccccn6)CC5)nc(OC[C@@]56CCCN5C[C@H](F)C6)nc4c3F)c12 [Example 153, 1-(7-(8-ethyl-7-fluoro-3-hydroxynaphthalen-1-yl)-8-fluoro-2-(((2R,7aS)-2-fluorotetrahydro-1H-pyrrolizin-7a(5H)-yl)methoxy)pyrido[4,3-d]pyrimidin-4-yl)-N-(pyridin-2-yl)piperidine-4-carboxamide] |
| 89 | 15 | – | 2090 | 38 | 2350 | CCc1c(F)ccc2cc(O)cc(-c3ncc4c(N5CC[C@H]6[C@@H](C5)[C@H]6C(=O)n5ccc(C)n5)nc(OC[C@@]56CCCN5C[C@H](F)C6)nc4c3F)c12 [Example 156, ((1R,6S,7S)-3-(7-(8-ethyl-7-fluoro-3-hydroxynaphthalen-1-yl)-8-fluoro-2-(((2R,7aS)-2-fluorotetrahydro-1H-pyrrolizin-7a(5H)-yl)methoxy)pyrido[4,3-d]pyrimidin-4-yl)-3-azabicyclo[4.1.0]heptan-7-yl)(3-methyl-1H-pyrazol-1-yl)methanone] |

Source: patent US20260356856A1, “KRAS G12S AND G12C INHIBITORS” (MIRATI THERAPEUTICS, INC., priority 2023, published 2026)
